The values that follow come from patent publication US10143686B2, “Oxidosqualene cyclase as a protein target for anticancer therapeutics” (The Curators of the University of Missouri, priority 2010, dated 2018).

The test system of experiment [1] is BT-474 breast cancer cells. Description: SRB cell viability assay, BT-474. In kind it is cell-based, human. The following applies: for IC50: Homo sapiens, BT-474, Breast (ER+ PR+). As for the experimental part: The sulforhodamine B (SRB) assay was employed to evaluate the effect of OSC inhibitor Ro 48-8071 on viability of breast cancer and normal mammary gland cells with slight modification of the original procedure established at NCI. Accordingly, the cells were seeded in 96-well plates in 100 μl culture medium and incubated overnight at 37° C. with 5% CO2. […] The surviving or adherent cells were fixed in situ by withdrawing the growth medium and adding 100 μl of PBS and 100 μl of 50% cold trichloroacetic acid and then incubating at 4° C. for 1 h. The surviving cells were washed with ice-water, dried at room temperature (RT), and then stained with 50 μl 4% SRB for 8 min at RT. Unbound dye was removed by washing 5 times with cold 1% acetic acid, and the plates were dried at RT. Bound stain was solubilized with 150 μl 10 mM Tris buffer, and absorbance of samples were measured at 520 nm with a SpecTRA MAX 190 microplate reader (Sunnyvale, Calif.). In these experiments on BT-474, T47-D, and AG11132A cell lines, six wells were used for each concentration, and each experiment was performed at least twice.
(§1) The effect of OSC inhibition was evaluated in additional cancer cell lines as well. Cancer cell lines may be purchased from ATCC (Manassas, Va.). The SRB assay has been employed for determination of the inhibitory effects of RO 48-8071 on growth of different cancer cells. Cells were seeded into 96-well plates and incubated overnight at 37° C. with 5% CO2. The culture medium was removed after 24 hours, and cells were washed with DMEM/F12 medium and then treated with various concentrations of RO 48-8071 in 5% FBS culture medium for 24 and 48 hours. Surviving or adherent cells were fixed in situ by withdrawing the growth medium, adding 100 μl PBS and 100 μl 50% trichloroacetic acid and then incubating at 4° C. for one hour. Cells were washed with ice-cold water, dried at room temperature (RT), and then stained with 50 μl 4% SRB for eight minutes at RT. Unbound dye was removed by washing with cold 1% acetic acid for five times, and plates were dried at RT. Bound stain was solubilized with 150 μl 10 mM Tris buffer and absorbance of samples was read at 520 nm with a SpecTRA MAX 190 microplate reader (Molecular Devices, Sunnyvale, Calif.). Six wells were used for each concentration, and each experiment was performed two to three times.
Effect of RO 48-8071 on breast cancer cell line BT-474 viability. […] The culture mediums employed 10% FBS DMEM/F12 for culture and 5% FBS DMEM/F12 for treatment.

In experiment [2] the test system is MCF-7 breast cancer cells. Kind of experiment: SRB cell viability assay, MCF-7. The format is cell-based. The following applies: Homo sapiens, MCF7, MCF-7, Breast (ER+ PR+). As for the experimental part:
as §1
Effect of RO 48-8071 on breast cancer cell line MCF-7 viability. […]

Experiment [3] deals with BT-20 breast cancer cells. Description: SRB cell viability assay, BT-20. The format is cell-based. The following applies: Homo sapiens, BT-20, Breast (triple negative). As for the experimental part: as §1
Effect of RO 48-8071 on estrogen, progesterone, and HER-2/neu receptors negative breast cancer cell line MDA-231 and BT-20 viability. […]

Setting [4] is: 24 hours, read-out: IC50 (μM) (24 hours).
The mark [5] stands for this setting: 48 hours, read-out: IC50 (μM) (48 hours).

In general, IC50 refers to the concentration that inhibits the measured activity by half.

Counter-ions that a name gives are not always drawn. Like-named read-outs stand apart in the source and are kept apart here.

With `C=CCN(C)CCCCCCOc1ccc(C(=O)c2ccc(Br)cc2)c(F)c1` [Ro 48-8071, 4′-[6-(Allylmethylamino)hexyloxy]-4-bromo-2′-fluorobenzophenone fumarate], the “effect on cell viability (SRB)” value in experiment [1] (BT-474, 24 hours, dose-dependent, FIG. 2A) was “significantly inhibit the viability”. The IC50 in experiment [1] (setting [4]) was 9.514 ± 0.05 µM; in experiment [1] (setting [5]) it was 6.06 ± 0.233 µM; in experiment [2] (setting [4]), 12.3 ± 0.585 µM; in experiment [2] (setting [5]), 6.33 ± 0.344 µM; in experiment [3] (setting [4]) it was 15.8 ± 0.335 µM; in experiment [3] (setting [5]) it was 12.7 ± 0.18 µM.
